According to ChEMBL document CHEMBL1201862, “PubChem BioAssay data set” (2004):
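In this assay, cells in 96-well plates receive the compound at five concentrations for 48 hours. Endpoints are linearly interpolated between the surrounding concentrations. GI50: concentration for 50% inhibition of growth.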 The source made the active and inactive calls. Rule as the data show it: active = GI50 up to about 1.1 µM and inactive = higher.

Legend:
Assay in all cases: NCI-60 cell line screen, 48 h
ACHN = test system: ACHN
SF-295 = test system: SF-295
U-251 = test system: U-251
CCRF-CEM = test system: CCRF-CEM
HCC 2998 = test system: HCC 2998
786-0 = test system: 786-0
NCI-H23 = test system: NCI-H23
SK-MEL-2 = test system: SK-MEL-2
HCT-15 = test system: HCT-15
NCI-H522 = test system: NCI-H522
KM12 = test system: KM12
NCI-H460 = test system: NCI-H460
OVCAR-8 = test system: OVCAR-8
CAKI-1 = test system: CAKI-1
SK-MEL-5 = test system: SK-MEL-5
LOX IMVI = test system: LOX IMVI
DU-145 = test system: DU-145
OVCAR-5 = test system: OVCAR-5
HL-60 = test system: HL-60
SF-539 = test system: SF-539

| Compound | GI50 (ACHN) | GI50 (SF-295) | GI50 (U-251) | GI50 (CCRF-CEM) | GI50 (HCC 2998) | GI50 (786-0) | GI50 (NCI-H23) | GI50 (SK-MEL-2) | GI50 (HCT-15) [µM] | GI50 (NCI-H522) | GI50 (KM12) | GI50 (NCI-H460) | GI50 (OVCAR-8) | GI50 (CAKI-1) | GI50 (SK-MEL-5) | GI50 (LOX IMVI) | GI50 (DU-145) | GI50 (OVCAR-5) | GI50 (HL-60) | GI50 (SF-539) |
| --- | --- | --- | --- | --- | --- | --- | --- | --- | --- | --- | --- | --- | --- | --- | --- | --- | --- | --- | --- | --- |
| CN1CCN(c2ncc3c(n2)sc2c(=O)n(-c4ccccc4)cnc23)CC1 | > 100 µM (inactive) | > 100 µM (inactive) | > 100 µM (inactive) | > 100 µM (inactive) | > 100 µM (inactive) | > 100 µM (inactive) | > 100 µM (inactive) | > 100 µM (inactive) | > 100 | > 100 µM (inactive) | > 100 µM (inactive) | > 100 µM (inactive) | > 100 µM (inactive) | > 100 µM (inactive) | > 100 µM (inactive) | > 100 µM (inactive) | > 100 µM (inactive) | > 100 µM (inactive) |  |  |
| C[C@H]1NC(=O)C2CCCCN2C(=O)CN(C)C(=O)CNC(=O)C2CCCCN2C(=O)[C@@H](NC(=O)c2nc3ccccc3cc2O)[C@@H](C)NC(=O)C2CCCCN2C(=O)CN(C)C(=O)CNC(=O)[C@@H]2CCCCN2C(=O)C1NC(=O)c1nc2ccccc2cc1O (some centres not stated) | 0.232 µM (active) | 0.0258 µM (active) | 0.0153 µM (active) | 1.02 µM (active) | 0.204 µM (active) | 0.203 µM (active) | 0.242 µM (active) | 0.0817 µM (active) | 2.75 | 0.106 µM (active) | 0.27 µM (active) | 0.188 µM (active) | 0.193 µM (active) | 0.136 µM (active) | 0.155 µM (active) | 0.169 µM (active) |  | 1.91 µM (inactive) | 2.03 µM (inactive) | 0.201 µM (active) |
| N#CC(C#N)=C1NN=C(Cl)c2ccccc21 | > 100 µM (inactive) | > 100 µM (inactive) | 96.4 µM (inactive) | 88.1 µM (inactive) | > 100 µM (inactive) | > 100 µM (inactive) | 59.4 µM (inactive) | > 100 µM (inactive) | > 100 | 72.1 µM (inactive) | > 100 µM (inactive) | > 100 µM (inactive) | > 100 µM (inactive) | > 100 µM (inactive) | > 100 µM (inactive) | > 100 µM (inactive) |  | > 100 µM (inactive) | 43.2 µM (inactive) | 85.5 µM (inactive) |
| CC1CN1c1c(C(=O)/C=C/c2ccccc2)c(-c2ccccc2)nn(C)c1=O (configuration not stated) | 17.4 µM (inactive) | 22.6 µM (inactive) | 16.9 µM (inactive) | 13.4 µM (inactive) | 16.4 µM (inactive) | 15.9 µM (inactive) | 16.6 µM (inactive) | 16.3 µM (inactive) | 14.1 | 13.4 µM (inactive) | 20.8 µM (inactive) | 19.1 µM (inactive) | 19.1 µM (inactive) | 37.4 µM (inactive) | 15.9 µM (inactive) | 15.6 µM (inactive) |  | 20.3 µM (inactive) | 17.2 µM (inactive) | 16.9 µM (inactive) |
| O=C(N/N=C\c1ccc(Cl)cc1)Nc1ccc2ccccc2c1 | 43.6 µM (inactive) | > 10 µM (inactive) | 23.9 µM (inactive) | > 100 µM (inactive) | 67.5 µM (inactive) | 19.3 µM (inactive) | 76.4 µM (inactive) | 80.4 µM (inactive) | > 100 | 38.9 µM (inactive) | 79.3 µM (inactive) | 28.5 µM (inactive) | 27.4 µM (inactive) | 41.7 µM (inactive) | > 100 µM (inactive) | > 100 µM (inactive) | > 100 µM (inactive) | 71.6 µM (inactive) |  | 27.8 µM (inactive) |
| COC(=O)C(CC=O)C(=O)C(=O)Nc1cccc(C(F)(F)F)c1 (configuration not stated) | > 100 µM (inactive) | > 100 µM (inactive) | > 100 µM (inactive) | > 100 µM (inactive) | > 100 µM (inactive) | > 100 µM (inactive) | > 100 µM (inactive) | > 100 µM (inactive) | > 100 | > 100 µM (inactive) | > 100 µM (inactive) | > 100 µM (inactive) | > 100 µM (inactive) | > 100 µM (inactive) | > 100 µM (inactive) | > 100 µM (inactive) |  | > 100 µM (inactive) | > 100 µM (inactive) | > 100 µM (inactive) |
| Clc1ccc(/C=C/c2csnn2)cc1 | > 100 µM (inactive) | > 100 µM (inactive) | > 100 µM (inactive) | > 100 µM (inactive) | > 100 µM (inactive) | > 100 µM (inactive) | > 100 µM (inactive) | > 100 µM (inactive) | > 100 | > 100 µM (inactive) | > 100 µM (inactive) | > 100 µM (inactive) | > 100 µM (inactive) | > 100 µM (inactive) | > 100 µM (inactive) | > 100 µM (inactive) |  | > 100 µM (inactive) | > 100 µM (inactive) | > 100 µM (inactive) |
